Source: patent publication US20250144205A1, “COMPOSITIONS AND METHODS FOR TREATING INFECTIOUS DISEASES” (priority 2022, published 2025)

Test system: TSE-induced lung injury (TSE-LI)
Assay: chronic tobacco smoke exposure induced lung injury (TSE-LI) in wild-type mice
Assay type: in vivo
Procedure: Recombinant full-length U5a protein (U5a^FL), extracellular domain of U5a^FL (U5a^ECD) and U5a^ECD-specific monoclonal antibody (U5a^mAb, the 17C9 1 anti-U5a antibody comprising the sequences of SEQ ID NOs. 204 and 211) mitigated chronic TS exposure (TSE) induced lung injury (TSE-LI) in wild-type (WT) mice. WT mice were kept in ambient AIR or exposed to tobacco smoke (TSE) for 4 h/day 5 days a week. After 16 weeks, WT mice with TSE-LI were left untreated (None) or treated with 2.5 mg/kg of U5a^FL, U5a^ECD and U5amAb 5 days a week for 4 weeks by IP injection. Total lung RNA were analyzed for MUC5AC (M5Ac) (FIG. 12A), FOXA2 (FIG. 12B) and surfactant protein-C(SP-C) (FIG. 12C) mRNA by qPCR. Lung sections of mice treated as in FIG. 12A were subjected to IHC analysis for M5Ac (FIG. 12D). We found increased expression of U5a in AECs and ATII cells in lungs of patients with COPD and mice with TSE-LI. […] In addition, increased surfactant protein-C(SP-C) indicates improved survival of ATII cells, which is otherwise reduced due to increased TSE-induced senescence and apoptosis of ATII cells seen in mice with TSE-LI left untreated.

U5a^ECD: extracellular domain of U5a^FL; ECD of UNC5A given as SEQ ID NO: 103
MUC5AC (M5Ac) expression (lung mRNA by qPCR, IHC) (WT mice with TSE-LI, 2.5 mg/kg IP 5 days a week for 4 weeks, FIG. 12A, 12D): significantly inhibits
FOXA2 mRNA (qPCR) (WT mice with TSE-LI, 2.5 mg/kg IP 5 days a week for 4 weeks, FIG. 12B): inducing
surfactant protein-C (SP-C) mRNA (qPCR) (WT mice with TSE-LI, 2.5 mg/kg IP 5 days a week for 4 weeks, FIG. 12C): increased
chronic TS exposure (TSE) induced lung injury (TSE-LI) (WT mice, 2.5 mg/kg IP 5 days a week for 4 weeks after 16 weeks TSE): mitigated
